Data from patent US12589090B2, “Compounds and methods for the treatment of degenerative disorders” (Aquilus Pharmaceuticals, Inc., priority 2019, dated 2026).
“Also recorded” adds a separate entry of the source.

Key:
Dissociation constant = assay type: physicochemical
[1] = In-vivo oral rat pharmacokinetics (Example 15); conditions: male Sprague-Dawley rats, dose level 10 mg/kg, 0.5% MC, plasma, mean
Experimental: Understanding the pharmacokinetics in species typically employed in preclinical animal testing is an essential component of drug discovery. […] Procedure: Six (6) male Sprague-Dawley rats were used. Fasting was conducted at least 16 hours prior to dose administration. Food was returned at approximately 4 hours post dose. The animals were placed into 2 groups of 3 animals per group. The oral (PO) formulation for Groups 1 & 2 were prepared on the day of dosing at a target concentration of 0.5 mg/mL in 0.5% Methylcellulose (400 cps) to produce a white, homogeneous suspension. Dosing was performed as outlined in Table 1:
Whole blood samples (0.250 mL; K2EDTA anticoagulant) were collected from each animal through a jugular vein catheter. Whole blood samples were collected from all animals pre-dose, and at 0.25, 0.5, 1, 2, 4, 8, 16, and 24 hours after dose administration. All blood samples were immediately placed on ice until processing. Whole blood samples were centrifuged at 2200×g for 10 minutes in a refrigerated centrifuge (5±3° C.) to isolate plasma. The plasma samples were transferred to individual polypropylene vials and immediately placed on dry ice before storage at nominally −20±5° C. The plasma samples sometime later were then thawed and extracted and analyzed by high pressure liquid chromatography (HPLC) coupled to Mass Spectrometry (MS) (Table 2). Pharmacokinetic parameters (Table 3) were estimated using WinNonlin® pharmacokinetic software (Version No. 5.2.1) using a non-compartmental approach consistent with the PO route of administration.

[2] = system: TDP-43 overexpressed flies; assay: TDP-43 pupal lethality screen (Example 23); assay type: in vivo, Drosophila; conditions: larvae raised on 1 microMolar; DMSO control 51%
Experimental: Procedure: UAS TDP-43 male Drosophila flies were crossed with D42-Gal4 female virgins on fly food containing either DMSO or 1% Compound 118 in dimethyl sulfoxide (DMSO). For DMSO controls, the same volume of DMSO as the corresponding Compound 118 concentration was added. Bromophenol blue was added to a final concentration of around 0.02% to ensure homogeneity. Crosses were made on drug food with three female virgins and two males in each vial and were maintained at 25° C. unless noted. The parents were discarded after 5-7 days and then the vials were screened for adult progeny with straight wings from Day 14 to Day 25. All adults were screened for TDP-43 expression by visualizing the YFP tag. Total number of pupae was counted on Day 25. Percent survival was calculated using the formula (total number of straight-winged adults/total number of pupae)×100. All experiments were performed in triplicate. Read-outs include larval turning assay and pupil lethality screen.
Compound 118 (represented as AQU-118) caused a decrease in lethality from 51% (bottom left) to 39% (bottom right). In this screen the number of adult TDP-43 overexpressed flies that emerge from their pupae stage is compared to w1118 controls. Larvae were raised on either DMSO or Compound 118 at 1 microMolar. N=number of pupae counted. Alive=empty pupal cases, adults have emerged. […]

SNL rats = assay: Spinal nerve ligation (SNL) rat model, mechanical allodynia by von Frey paw withdrawal threshold (Example 17); assay type: in vivo, Sprague Dawley rats; conditions: 160 mg/Kg PO once per day for 5 days, 60 min after dosing, vs. vehicle control, p<0.05
Experimental: A total of 90 male Sprague Dawley rats (200-225 g) from Envigo (Indianapolis, IN) were used in the study. The 90 rats were assembled into four groups that would be orally dosed (PO) with vehicle, Gabapentin and Compound 118 as follows: • Group 1=Sham+Vehicle, n=20 rats • Group 2=SNL+Vehicle, n=40 rats • Group 3=SNL+Compound 118 (160 mg/Kg), n=20 rats • Group 4=SNL+Gabapentin (100 mg/Kg), n=10 rats
Under general anesthesia with continuous inhalation of isoflurane, surgery was performed with aseptic procedures. The skin at the area of the lower lumber and sacral level of the rat was shaved and disinfected with betadine and alcohol. A left longitudinal incision at the level next to the vertebral column was made and the left paraspinal muscles were separated. The transverse process of L6 was removed and nearby connective tissue cleaned to expose L5 and L6 spinal nerves. After the nerves were isolated and clearly visualized, 4-0 silk threads were used to ligate the left L5. The muscles were sutured with 4-0 silk threads and the wound closed by staples. […] Each rat was monitored until awake and moving freely around the recovery chamber. […]
The mechanical allodynia of the rodents were measured by applying von Frey (VF) filaments (Stoelting, Wood Dale, IL) of ascending bending force to the plantar surface of the hind paws, ipsilateral and contralateral to the surgical manipulation. […]

[3] = system: SOD-1 overexpression in Drosophila motor neurons; assay: SOD-1 Drosophila model of ALS, larval turning read-out (Example 24); assay type: in vivo; conditions: 1 microMolar, SOD-1 (wild-type and G85R) overexpression, vs. DMSO vehicle
Experimental: Procedure: Following the method of Zarnescu and coworkers (Human Molecular Genetics, 24(6), 1741-1754, 2015). UAS SOD-1 male Drosophila flies were crossed with D42-Gal4 female virgins on fly food containing either DMSO or 1% Compound 118 in dimethyl sulfoxide (DMSO). For DMSO controls, the same volume of DMSO as the corresponding Compound 118 concentration was added. Bromophenol blue was added to a final concentration of around 0.02% to ensure homogeneity. Crosses were made on drug food with three female virgins and two males in each vial and were maintained at 25° C. unless noted. The parents were discarded after 5-7 days and then the vials were screened for adult progeny with straight wings from Day 14 to Day 25. All adults were screened for SOD-1 expression. Read-outs involved the larval turning assay.
SOD-1^wt=Wild-type, SOD1^G85R=Diseases associated G85R mutant expressed in motor neurons. […], ***p<0.001 as compared to DMSO vehicle.

For `[2H]C([2H])([2H])c1ccc(C#Cc2ccc(S(=O)(=O)N[C@H](Cc3c[nH]c4ccccc34)C(=O)O)s2)cc1` [Compound 118, (R)-3-(1H-Indol-3-yl)-2-[5-(4-trideuteromethyl-phenylethynyl)-thiophene-2-sulfonylamino]-propionic acid-(D3, 98%)], the dissociation constant (Dissociation constant) was “around 3.4”, the AUC(0-inf) [1] was 7730 ng·h/mL and the AUC(0-t) [1] was 7680 ng·h/mL. The Cmax [1] was 2740 ng/mL, the half-life [1] was 1.47 h and the “lethality (dead pupae)” value [2] was 39%. For the same molecule, the “mechanical allodynia (ipsilateral paw withdrawal threshold, von Frey)” value (SNL rats) was “reduce mechanical allodynia in a statistical manner; also recorded: statistically significant decrease in mechanical allodynia” and the “locomotive defects via larval turning times” value [3] was “able to mitigate locomotive defects”.
